Data: article PMC6412895, “Synthesis, Characterization, and Biological Activity of a Novel Series of Benzo[4,5]imidazo[2,1-b]thiazole Derivatives as Potential Epidermal Growth Factor Receptor Inhibitors” (Molecules, 2019)

Assays:
HeLa cells = assay: MTT anti-proliferative assay, HeLa; format: cell-based, human; settings: 24 h incubation, EGFR high-expressed cell line
Description: (§1) The inhibitory activities of all target compounds against the cervical cancer cell line HeLa, human liver cancer cell line HepG2, human liver cell line HL7702, and human umbilical vein endothelial cell line HUVEC were determined by the 3-(4,5-dimethylthiazol-2-yl)-2,5-diphenyltetrazolium bromide (MTT) assay. As known, the EGFR level of the HeLa cells was highly expressed, while that of the HepG2 cells was low, and the HL7702 cells and HUVEC cells were human normal cells.
(§2) The human cancer cell lines (HeLa and HepG2) and the human normal ones (HL7702 and HUVEC) were chosen to evaluate the antitumor activity and cell toxicity of target compounds in vitro by the MTT assay. HeLa, HepG2, and HUVEC cells were cultured in a Dulbecco’s modified Eagle’s medium (DMEM) supplemented with 10% fetal bovine serum, and HL7702 cells were cultured in a DMEM supplemented with 10% fetal bovine serum. Cells were grown to 80–90% confluence and subjected to no more than 20 cell passages and were left to acclimatize for 24 h before any treatments. The cells were seeded into 96-well plates (8 * 10^4 cells/mL) and incubated at 37 °C in a humidified atmosphere containing 5% CO2 overnight. After 24 h, the cancer cells were treated with the target compounds at 100, 50, 25, 12.5, 6.25, 3.13, and 1.56 μmol/L; the human normal cells HL7702 were treated with 200 and 100 μmol/L of the target ones; and the HUVEC were treated with 100 and 50 μmol/L of the target compounds. After 24 h of incubation, MTT (5 mg/mL) was subsequently added and incubated for 4 h. Next, the culture medium was cleared, and the crystals were dissolved in DMSO. The optical densities (OD) at 490 nm were measured on a universal microplate reader (Bio-Tek instruments, Inc., EL × 800). Inhibitory effects were expressed as the percentage of IC50 value.

HL7702 cells = assay: MTT cell toxicity assay, HL7702 normal liver cells; format: cell-based; settings: human normal liver cell line
Description: as §1, §2

HepG2 cells = assay: MTT anti-proliferative assay, HepG2; format: cell-based, human; settings: EGFR low-expressed cell line
Description: as §1, §2

HUVEC cells = assay: MTT cell toxicity assay, HUVEC; format: cell-based; settings: 24 h incubation, human normal cells
Description: as §1, §2

EGFR kinase = EGFR kinase (Homo sapiens, UniProt P00533); assay: EGFR kinase assay (Kinase-Glo Plus luminescence); format: biochemical; settings: 10 µM ATP, 30 °C, 40 minutes
Sequence of EGFR kinase (P00533 669-1210 limits assumed): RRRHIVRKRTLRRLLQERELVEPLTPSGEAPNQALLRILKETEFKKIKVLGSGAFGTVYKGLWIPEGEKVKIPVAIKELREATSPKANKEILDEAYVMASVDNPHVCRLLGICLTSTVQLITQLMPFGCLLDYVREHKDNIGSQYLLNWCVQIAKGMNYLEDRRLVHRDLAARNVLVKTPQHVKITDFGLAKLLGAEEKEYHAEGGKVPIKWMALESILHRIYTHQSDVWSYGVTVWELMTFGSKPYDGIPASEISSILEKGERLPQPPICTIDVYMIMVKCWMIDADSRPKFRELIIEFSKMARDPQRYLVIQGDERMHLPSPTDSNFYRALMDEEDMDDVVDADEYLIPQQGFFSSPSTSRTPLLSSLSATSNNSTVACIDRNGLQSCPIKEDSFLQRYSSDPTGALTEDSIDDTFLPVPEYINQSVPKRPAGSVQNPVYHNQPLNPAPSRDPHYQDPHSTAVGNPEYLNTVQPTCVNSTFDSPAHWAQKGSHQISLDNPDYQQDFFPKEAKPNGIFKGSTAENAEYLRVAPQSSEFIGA
Description: The EGFR kinase assays of the target compounds were performed by the intrinsic ATPase activity luminescence assay. All the enzymatic reactions were conducted at 30 °C for 40 minutes. The 50 µL reaction mixture contained 40 mM Tris, pH 7.4, 10 mM MgCl2, 0.1 mg/mL BSA, 1 mM DTT, 10 µM adenosine triphosphate (ATP), 0.2 ug/mL PI3 Kinase, and 100 µM lipid substrate. The compounds were diluted in 10% DMSO and 5 µL of the dilution was added to a 50 µL reaction so that the final concentration of DMSO was 1% in all the reactions. The assay was performed using the Kinase-Glo Plus luminescence kinase assay kit, which measures the kinase activity by quantifying the amount of ATP remaining in solution following a kinase reaction. The luminescent signal from the assay was correlated with the amount of ATP present and was inversely correlated with the amount of kinase activity. The IC50 values were calculated using nonlinear regression with a normalized dose−response fit using the Prism GraphPad software (version 6.0, GraphPad Software, San Diego, CA, USA).

[1] = Homo sapiens, HepG2, 24 h incubation

Compound	IC50 (HeLa cells; Homo sapiens, HeLa) [µM]	IC50 (HL7702 cells; L02, 24 h incubation) [µM]	melting point [°C]	IC50 (HepG2 cells; [1]) [µM]	IC50 (HUVEC cells; HUVEC) [µM]	IC50 (EGFR kinase) [µM]	IC50 (HeLa cells) [µM]	IC50 (HL7702 cells; 24 h incubation) [µM]	IC50 (HepG2 cells; 24 h incubation) [µM]	IC50 (HUVEC cells) [µM]
O=C(Cc1csc2nc3ccccc3n12)Nc1ccc(Cl)c(C(F)(F)F)c1 [Compound D10, 2-(Benzo[4,5]imidazo[2,1-b]thiazol-3-yl)-N-(4-chloro-3-(trifluoromethyl)phenyl)acetamide]	> 100	> 200	153 to 155	> 100	> 100	–	–	–	–	–
O=C(Cc1csc2nc3ccccc3n12)Nc1cccc2ccccc12 [Compound D08, 2-(Benzo[4,5]imidazo[2,1-b]thiazol-3-yl)-N-(naphthalen-1-yl)acetamide]	2.49	> 200	136 to 138	> 100	> 100	0.0883	–	–	–	–
O=C(Cc1csc2nc3ccccc3n12)Nc1ccc(F)c(Br)c1 [Compound D13, 2-(Benzo[4,5]imidazo[2,1-b]thiazol-3-yl)-N-(3-bromo-4-fluorophenyl)acetamide]	> 100	> 200	218 to 220	> 100	> 100	–	–	–	–	–
O=C(Cc1csc2nc3ccccc3n12)Nc1ccc(Cl)cc1Cl [Compound D17, 2-(Benzo[4,5]imidazo[2,1-b]thiazol-3-yl)-N-(2,4-dichlorophenyl)acetamide]	> 100	> 200	206 to 208	> 100	> 100	–	–	–	–	–
O=C(Cc1csc2nc3ccccc3n12)Nc1ccc([N+](=O)[O-])cc1 [Compound D07, 2-(Benzo[4,5]imidazo[2,1-b]thiazol-3-yl)-N-(4-nitrophenyl)acetamide]	> 100	> 200	99 to 101	> 100	> 100	–	–	–	–	–
O=C(Cc1csc2nc3ccccc3n12)Nc1ccc(Br)c(F)c1 [Compound D11, 2-(Benzo[4,5]imidazo[2,1-b]thiazol-3-yl)-N-(4-bromo-3-fluorophenyl)acetamide]	> 100	> 200	151 to 153	> 100	> 100	–	–	–	–	–
C=CCOc1ccc(NC(=O)Cc2csc3nc4ccccc4n23)cc1 [Compound D05, N-(4-(Allyloxy)phenyl)-2-(benzo[4,5]imidazo[2,1-b]thiazol-3-yl)acetamide]	> 100	> 200	196 to 198	> 100	> 100	–	–	–	–	–
2-(Benzo[4,5]imidazo[2,1-b]thiazol-3-yl)-N-(4-(trifluoromethyl)phenyl)acetamide [Compound D18]	–	–	–	–	–	–	43.7	–	–	–
O=C(Cc1csc2nc3ccccc3n12)Nc1cccc([N+](=O)[O-])c1 [Compound D06, 2-(Benzo[4,5]imidazo[2,1-b]thiazol-3-yl)-N-(3-nitrophenyl)acetamide]	> 100	> 200	132 to 134	> 100	> 100	–	–	–	–	–
Cc1ccccc1NC(=O)Cc1csc2nc3ccccc3n12 [Compound D15, 2-(Benzo[4,5]imidazo[2,1-b]thiazol-3-yl)-N-(2-methylphenyl)acetamide]	> 100	> 200	83 to 85	> 100	> 100	–	–	–	–	–
2-(Benzo[4,5]imidazo[2,1-b]thiazol-3-yl)-N-(4-(benzyloxy)phenyl)acetamide [Compound D12]	–	–	–	–	–	–	> 100	> 200	> 100	> 100
O=C(Cc1csc2nc3ccccc3n12)Nc1cccc(O)c1 [Compound D03, 2-(Benzo[4,5]imidazo[2,1-b]thiazol-3-yl)-N-(3-hydroxyphenyl)acetamide]	> 100	> 200	111 to 113	> 100	> 100	–	–	–	–	–
O=C(Cc1csc2nc3ccccc3n12)Nc1ccc(O)cc1 [Compound D02, 2-(Benzo[4,5]imidazo[2,1-b]thiazol-3-yl)-N-(4-hydroxyphenyl)acetamide]	> 100	> 200	101 to 103	> 100	> 100	–	–	–	–	–
O=C(Cc1csc2nc3ccccc3n12)Nc1ccc(Cl)cc1 [Compound D09, 2-(Benzo[4,5]imidazo[2,1-b]thiazol-3-yl)-N-(4-chlorophenyl)acetamide]	14.1	> 200	151 to 153	> 100	> 100	0.1	–	–	–	–
O=C(Cc1csc2nc3ccccc3n12)Nc1cc(F)cc(F)c1 [Compound D16, 2-(Benzo[4,5]imidazo[2,1-b]thiazol-3-yl)-N-(3,5-difluorophenyl)acetamide]	32.1	> 200	101 to 103	> 100	> 100	–	–	–	–	–
O=C(Cc1csc2nc3ccccc3n12)Nc1ccc(Br)cc1 [Compound D14, 2-(Benzo[4,5]imidazo[2,1-b]thiazol-3-yl)-N-(4-bromophenyl)acetamide]	> 100	> 200	107 to 109	> 100	> 100	–	–	–	–	–
O=C(Cc1csc2nc3ccccc3n12)Nc1ccccc1 [Compound D01, 2-(Benzo[4,5]imidazo[2,1-b]thiazol-3-yl)-N-phenylacetamide]	> 100	> 200	123 to 125	> 100	> 100	–	–	–	–	–
O=C(Cc1csc2nc3ccccc3n12)Nc1ccccc1O [Compound D04, 2-(Benzo[4,5]imidazo[2,1-b]thiazol-3-yl)-N-(2-hydroxyphenyl)acetamide]	0.42	> 200	121 to 123	> 100	> 100	0.055	–	–	–	–
